Source: PubChem BioAssay AID1959 (Broad Institute, 2009)
The source made the active and inactive calls.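 How the source made its calls: active means growth-inhibition EC50 no more than tenfold above the top tested dose; inconclusive means flat fit between 30% and 70% inhibition, or unreliable fit; inactive means EC50 more than tenfold above the top tested dose.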

Test system: E. coli NEB5alpha growth, BacTiter-Glo luminescence, 4 h
Assay: antibacterial activity against E. coli NEB5alpha – luminescence, counter-screen for MEX-5/POS-1 RNA-binding inhibitor project, dose response (AID 1959);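 further: pUC19-transformed ampicillin-resistant cells grown in LB with ampicillin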

Row | Structure (SMILES) | EC50
1 | COC(=O)CCCC1=CC2=CC(=O)C(C)(OC(=O)c3ccc(Cl)nc3)C(=O)C2=CO1 (stereo not drawn) | > 11 µM (inactive)
2 | CC1CC=C2C(C#N)=C(N)C(C#N)(C#N)C(c3cccs3)C2C1 (stereo not drawn) | > 11 µM (inactive)
3 | CC(=NC1CCCC1)c1c(C)[nH]n(-c2nc3ccccc3s2)c1=O | > 11 µM (inactive)
4 | Cc1nc2sc(-c3ccccc3)cc2c(=O)n1N | > 11 µM (inactive)
5 | CCn1nc(C)c(/C=C2\CCCC3=C2OC(N)=C(C#N)C3c2c(C)nn(CC)c2C)c1C (stereo not drawn) | > 11 µM (inactive)
6 | COc1ccc(-c2cc(C(=O)N/N=C(\C)c3ccco3)c3ccccc3n2)c(OC)c1 | > 11 µM (inactive)
7 | NC(=O)c1c(NC(=O)c2ccccc2)sc2c1CCN(Cc1ccccc1)C2 | > 11 µM (inactive)
8 | Cc1ccc(/C=C2/Sc3ccc(C(=O)N4CCC5(CC4)OCCO5)cc3NC2=O)cc1 | > 11 µM (inactive)
9 | COc1ccc(NC(=O)NS(=O)(=O)c2ccc(C)cc2)cn1 | > 11 µM (inactive)
10 | Cc1c(N=Cc2c(O)n(Cc3ccccc3)c(=O)[nH]c2=O)c(=O)n(-c2ccccc2)n1C | > 11 µM (inactive)
11 | COc1ccc(/C=N/N=C2/CC(C)(C)Cc3n[nH]c(=O)cc32)cc1 | > 11 µM (inactive)
12 | CCOC(=O)Cc1csc(NC(=O)c2sc3nc4cc(C)ccc4cc3c2N)n1 | > 11 µM (inactive)
13 | Cc1cccc(/C=C(\C(=O)C(=O)O)c2ccc3ccccc3n2)c1 | > 11 µM (inactive)
14 | Cc1cc(O)c(CN(C)C)c2c1C(=O)/C(=C/c1ccco1)O2 | > 11 µM (inactive)
15 | Cc1ccn2cc(-c3ccc(O)c(O)c3)nc2c1 | > 11 µM (inactive)
16 | COC(=O)C1CSc2[nH]c(=O)sc2C1c1ccc(OC)c(OC)c1 (stereo not drawn) | > 11 µM (inactive)
17 | O=C/C(=C\Nc1ccccn1)c1nc2ccccc2o1 | > 11 µM (inactive)
18 | Oc1ccc(-c2csc(Nc3ccccn3)n2)cc1O | > 11 µM (inactive)
19 | Cc1c(Cl)cccc1NC(=S)N1CCN(C(=O)C2CCCO2)CC1 (stereo not drawn) | > 11 µM (inactive)
20 | Cn1c(N=Nc2ccc(N3CCOCC3)cc2)[n+](C)c2ccccc21 | > 11 µM (inactive)
21 | COC(=O)C1=C(C)N(c2ccc(Cl)cc2)/C(=C/c2cccs2)C1=O | > 11 µM (inactive)
22 | COC/C=C/C1=CC2=CC(=O)C(C)(OC(=O)C3CCCC3)C(=O)C2=CO1 (stereo not drawn) | > 11 µM (inactive)
23 | N#CC1=C(N)OC2=C(C(=O)CC(c3ccco3)C2)C1c1ccc(OCc2c(F)cccc2Cl)cc1 (stereo not drawn) | > 11 µM (inactive)

Row | Structure (SMILES) | EC50
24 | COc1cc(C(=O)NC(c2ccccc2)c2ccccc2)cc(OC)c1C | > 11 µM (inactive)
25 | CC1=Nc2ccccc2/C1=C\c1nc(-c2ccc(F)cc2)oc1O | > 11 µM (inactive)
26 | Cc1ccc(/C=C2/Sc3ccc(C(=O)N4CCN(c5ccccn5)CC4)cc3NC2=O)cc1 | > 11 µM (inactive)
27 | O=C(O)c1cccc(-n2cccc2C=C2C(=O)c3ccccc3C2=O)c1 | > 11 µM (inactive)
28 | Cc1ccc(N2C(=O)NC(=O)/C(=C\c3cc(C)n(-c4ccc(C(=O)O)cc4)c3C)C2=O)cc1 | > 11 µM (inactive)
29 | COc1cc(C2NC(=S)NC(C)=C2C(=O)OC(C)C)ccc1OC(C)C (stereo not drawn) | > 11 µM (inactive)
30 | Cc1cc(O)c(Oc2cc(C)cc(O)c2O)c(O)c1 | > 11 µM (inactive)
31 | O=[N+]([O-])c1ccc(C2=Nc3cc(Cl)ccc3OC2)cc1 | > 11 µM (inactive)
32 | Cc1ccc(NC(=O)c2sc3nc4c(c(-c5ccco5)c3c2N)CCC4)cc1 | > 11 µM (inactive)
33 | C=CCN1C=C2C(=O)C(C)(OC(=O)CCC(=O)OC)C(=O)C(Br)=C2C=C1c1ccc(OC)cc1 (stereo not drawn) | > 11 µM (inactive)
34 | CCNC(=O)c1cc2c(=O)n3cccc(C)c3nc2n(CCc2ccccc2)c1=N | > 11 µM (inactive)
35 | O=C1CCC/C(=N/NC(=O)c2sc3ccccc3c2Cl)C1 | > 11 µM (inactive)
36 | COC(=O)CCC(=O)OC1(C)C(=O)C2=COC(c3ccc(OC)cc3)=CC2=C(Br)C1=O (stereo not drawn) | > 11 µM (inactive)
37 | CCOC(=O)c1cc(=O)n2nc(-c3ccc(C)cc3)nc2s1 | > 11 µM (inactive)
38 | O=C(O)CCN1C(=O)/C(=C/c2ccc(-c3nc4ccccc4s3)o2)SC1=S | > 11 µM (inactive)
39 | CCOc1ccc(N2C(=O)S/C(=C\c3cccn3C)C2=O)cc1 | > 11 µM (inactive)
40 | COC(=O)/C=C1\C(=O)N(c2nc3ccccc3s2)C(=S)N1c1ccc(F)cc1 | > 11 µM (inactive)
41 | Cc1ccc(/C=C/C(=O)c2ccc(N3CCOCC3)cc2)s1 | > 11 µM (inactive)
42 | CCN(CC)c1ccc(N=Nc2ncn[nH]2)cc1 | > 11 µM (inactive)
43 | CN1CCC2(CC1)C(C#N)=C(N)NC(S)=C2C#N | > 11 µM (inactive)
44 | N#Cc1c(-c2ccc(Cl)cc2)c2c([nH]c1=O)-c1ccccc1OC2 | > 11 µM (inactive)
45 | Cc1cc(/C=N/n2cnnc2)c(C)n1-c1ccc(C(=O)O)cc1 | > 11 µM (inactive)
46 | COc1cccc(C2C3CN(C)CC=C3C(C#N)=C(N)C2(C#N)C#N)c1OC (stereo not drawn) | > 11 µM (inactive)

Row | Structure (SMILES) | EC50
47 | CN1CC=C2C(C#N)=C(N)C(C#N)(C#N)C(c3ccncc3)C2C1 (stereo not drawn) | > 11 µM (inactive)
48 | O=C(/C=C(\O)c1ccccc1)C(=O)NNC(=O)c1ccccc1[N+](=O)[O-] | > 11 µM (inactive)
49 | CCN1/C(=C2/SC(=S)N(NC(C)=O)C2=O)Sc2ccc(OC)cc21 | > 11 µM (inactive)
50 | Cc1cc2nc3ccc(=[N+](C)C)cc-3sc2cc1N | > 11 µM (inactive)
51 | O=C(COC(=O)C1CCCC1)Nc1ncc(Cl)cc1Cl | > 11 µM (inactive)
52 | CC(C)/C=C1\CC/C(=C\c2ccc(N(C)C)cc2)C1=O | > 11 µM (inactive)
53 | O=[N+]([O-])c1cccc(-c2cn3nc(-c4ccccc4)c(-c4ccccc4)nc3n2)c1 | > 11 µM (inactive)
54 | CC(NC(=O)COc1ccccc1)C(=O)OCC(=O)c1cc2ccccc2o1 (stereo not drawn) | > 11 µM (inactive)
55 | Cc1[nH][nH]c(=O)c1C(c1ccc(-c2cccc(C(=O)O)c2)o1)c1c(C)[nH][nH]c1=O | > 11 µM (inactive)
56 | CC(C)Sc1nsc2nc(=O)c(/C=C3\C=Nc4ccccc43)c(N)n12 | > 11 µM (inactive)
57 | COc1ccc(CCNC(=O)c2nn(C)c3c2CS(=O)(=O)c2ccccc2-3)cc1OC | > 11 µM (inactive)
58 | COc1ccc2c(c1)c1nc3ccccc3nc1n2Cc1ccc(OC)c(OC)c1 | > 11 µM (inactive)
59 | CC1=C[C@@H]2c3cccc4[nH]cc(c34)C[C@H]2N(C)C1 | > 11 µM (inactive)
60 | CCOC(=O)C1=C2NC(=O)c3ccccc3N2C(=O)C1 | > 11 µM (inactive)
61 | N=C1/C(=C\c2ccc(SCc3ccco3)o2)C(=O)N=C2SC=NN12 | > 11 µM (inactive)
62 | O=C1c2ccccc2C(=O)c2[nH]c(=O)[nH]c21 | > 11 µM (inactive)
63 | COC(=O)c1ccc(-n2c(C)cc(C(=O)COC(=O)CC3Sc4ccccc4NC3=O)c2C)cc1 (stereo not drawn) | > 11 µM (inactive)
64 | CCn1c(CNC(=O)c2ccc(Cl)cc2)nnc1SCC(=O)N1CCOCC1 | > 11 µM (inactive)
65 | COc1ccc(C2C(C#N)=C(N)OC3=C2C(=O)CCC3)cc1OC (stereo not drawn) | > 11 µM (inactive)
66 | Fc1ccc2c(c1)C1C=CCC1C(c1cc3c(cc1Br)OCO3)N2 (stereo not drawn) | > 11 µM (inactive)
67 | O=C1CS/C(=C\[N+](=O)[O-])N1c1ccccc1 | > 11 µM (inactive)
68 | O=C(NNC(=O)c1csc(-c2cccnc2)n1)c1ccccc1 | > 11 µM (inactive)
